Assay results taken from article PMC5428509, “Irreversible inhibition of BTK kinase by a novel highly selective inhibitor CHMFL-BTK-11 suppresses inflammatory response in rheumatoid arthritis model” (Scientific Reports, 2017).

Key:
Assay in all cases: biochemical
Parameters in all cases: KinomeScan competition binding panel (DiscoveRx), percent of control at 1 uM
Conditions in all cases: read-out: Percent Control
[1] = target: NEK6 (Homo sapiens, UniProt Q9HC98)
In short: (§1)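 KinomeScan technology used to profile binding across a panel of 456 kinases and mutants.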

[2] = target: RET(M918T) (Homo sapiens, UniProt P07949, M918T)
In short: as §1

[3] = target: T1, MLK1 (Homo sapiens, UniProt P80192)
T1 construct: gene MAP3K9
In short: as §1

[4] = target: LIMK1 (Homo sapiens, UniProt P53667)
In short: as §1

[5] = target: T2, ABL1(H396P)-nonphosphorylated (Homo sapiens, UniProt P00519, H396P)
T2 construct: nonphosphorylated
In short: as §1

[6] = target: RIOK1 (Homo sapiens, UniProt Q9BRS2)
In short: as §1

[7] = target: CSK (Homo sapiens, UniProt P41240)
In short: as §1

[8] = target: T3, DMPK2 (Homo sapiens, UniProt Q6DT37)
T3 construct: gene CDC42BPG
In short: as §1

[9] = target: KIT(V559D) (Homo sapiens, UniProt P10721, V559D)
In short: as §1

[10] = target: HCK (Homo sapiens, UniProt P08631)
In short: as §1

[11] = target: CDK9 (Homo sapiens, UniProt P50750)
In short: as §1

[12] = target: T4, PCTK1 (Homo sapiens, UniProt Q00536)
T4 construct: gene CDK16
In short: as §1

[13] = target: MAP3K1 (Homo sapiens, UniProt Q13233)
In short: as §1

[14] = target: FLT4 (Homo sapiens, UniProt P35916)
In short: as §1

[15] = target: INSR (Homo sapiens, UniProt P06213)
In short: as §1

[16] = target: FLT3-autoinhibited (Homo sapiens, UniProt P36888)
In short: as §1

[17] = target: CAMK2G (Homo sapiens, UniProt Q13555)
In short: as §1

[18] = target: PIK3CA(Q546K) (Homo sapiens, UniProt P42336, Q546K)
In short: as §1

[19] = target: CAMK2A (Homo sapiens, UniProt Q9UQM7)
In short: as §1

[20] = target: EPHA7 (Homo sapiens, UniProt Q15375)
In short: as §1

[21] = target: PIK3CB (Homo sapiens, UniProt P42338)
In short: as §1

[22] = target: CSNK1D (Homo sapiens, UniProt P48730)
In short: as §1

[23] = target: T5, JAK2(JH1domain-catalytic) (Homo sapiens, UniProt O60674)
T5 construct: JH1domain-catalytic
In short: as §1

[24] = target: CDK3 (Homo sapiens, UniProt Q00526)
In short: as §1

[25] = target: T6, SGK (Homo sapiens, UniProt O00141)
T6 construct: gene SGK1
In short: as §1

LIMK1, sequence (P53667 whole entry): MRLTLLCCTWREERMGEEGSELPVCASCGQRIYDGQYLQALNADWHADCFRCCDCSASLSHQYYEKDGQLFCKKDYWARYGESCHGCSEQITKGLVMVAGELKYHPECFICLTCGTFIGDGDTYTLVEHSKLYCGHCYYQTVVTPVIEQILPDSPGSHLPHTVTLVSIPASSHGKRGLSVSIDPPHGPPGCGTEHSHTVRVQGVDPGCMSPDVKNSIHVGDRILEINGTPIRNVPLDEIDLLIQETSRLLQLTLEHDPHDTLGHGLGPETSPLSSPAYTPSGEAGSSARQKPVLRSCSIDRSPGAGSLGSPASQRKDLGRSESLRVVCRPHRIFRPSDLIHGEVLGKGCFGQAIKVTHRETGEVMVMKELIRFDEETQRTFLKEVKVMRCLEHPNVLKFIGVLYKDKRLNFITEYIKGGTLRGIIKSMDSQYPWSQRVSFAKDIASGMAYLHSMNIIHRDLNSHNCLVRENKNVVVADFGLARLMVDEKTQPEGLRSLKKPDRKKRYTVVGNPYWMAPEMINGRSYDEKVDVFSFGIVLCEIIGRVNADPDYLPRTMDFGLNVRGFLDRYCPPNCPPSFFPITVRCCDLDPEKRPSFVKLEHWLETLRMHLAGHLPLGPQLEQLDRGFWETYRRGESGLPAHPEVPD
CSNK1D, sequence (P48730 whole entry): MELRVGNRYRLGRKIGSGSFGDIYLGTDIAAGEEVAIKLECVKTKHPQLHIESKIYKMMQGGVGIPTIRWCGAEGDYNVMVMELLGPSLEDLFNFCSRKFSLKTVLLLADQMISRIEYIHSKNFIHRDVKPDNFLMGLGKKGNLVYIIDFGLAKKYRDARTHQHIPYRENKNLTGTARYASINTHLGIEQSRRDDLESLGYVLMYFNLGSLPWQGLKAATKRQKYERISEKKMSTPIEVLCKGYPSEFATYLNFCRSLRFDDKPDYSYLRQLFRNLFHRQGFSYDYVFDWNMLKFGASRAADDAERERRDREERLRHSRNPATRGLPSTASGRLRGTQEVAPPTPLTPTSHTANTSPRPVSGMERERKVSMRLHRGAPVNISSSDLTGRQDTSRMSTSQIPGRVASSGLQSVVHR
EPHA7, sequence (Q15375 whole entry): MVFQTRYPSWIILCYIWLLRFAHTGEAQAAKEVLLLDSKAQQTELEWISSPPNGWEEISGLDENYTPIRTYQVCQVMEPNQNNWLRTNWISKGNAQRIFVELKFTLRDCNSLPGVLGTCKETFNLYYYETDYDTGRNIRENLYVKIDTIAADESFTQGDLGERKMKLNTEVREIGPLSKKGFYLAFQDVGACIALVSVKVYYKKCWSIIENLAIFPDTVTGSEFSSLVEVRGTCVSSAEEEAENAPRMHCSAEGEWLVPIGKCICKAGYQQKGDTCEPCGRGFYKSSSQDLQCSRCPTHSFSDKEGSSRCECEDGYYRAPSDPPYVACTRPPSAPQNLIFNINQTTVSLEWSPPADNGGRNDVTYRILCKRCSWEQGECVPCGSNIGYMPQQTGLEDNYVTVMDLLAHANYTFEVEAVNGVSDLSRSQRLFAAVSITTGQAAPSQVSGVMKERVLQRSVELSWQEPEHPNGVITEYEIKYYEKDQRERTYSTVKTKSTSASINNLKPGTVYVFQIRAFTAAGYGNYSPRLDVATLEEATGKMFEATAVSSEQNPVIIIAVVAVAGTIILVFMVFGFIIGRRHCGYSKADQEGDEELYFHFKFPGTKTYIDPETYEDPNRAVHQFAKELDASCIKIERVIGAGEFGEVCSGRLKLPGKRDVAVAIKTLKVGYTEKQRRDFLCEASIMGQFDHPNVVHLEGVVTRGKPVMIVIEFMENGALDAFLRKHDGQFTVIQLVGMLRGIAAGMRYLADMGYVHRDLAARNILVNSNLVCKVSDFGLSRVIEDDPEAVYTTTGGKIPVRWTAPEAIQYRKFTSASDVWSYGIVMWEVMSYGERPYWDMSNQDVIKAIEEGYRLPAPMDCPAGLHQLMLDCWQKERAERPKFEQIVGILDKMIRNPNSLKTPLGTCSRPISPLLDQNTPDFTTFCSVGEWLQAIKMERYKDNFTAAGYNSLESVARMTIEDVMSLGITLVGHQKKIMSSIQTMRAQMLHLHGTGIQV
INSR, sequence (P06213 whole entry): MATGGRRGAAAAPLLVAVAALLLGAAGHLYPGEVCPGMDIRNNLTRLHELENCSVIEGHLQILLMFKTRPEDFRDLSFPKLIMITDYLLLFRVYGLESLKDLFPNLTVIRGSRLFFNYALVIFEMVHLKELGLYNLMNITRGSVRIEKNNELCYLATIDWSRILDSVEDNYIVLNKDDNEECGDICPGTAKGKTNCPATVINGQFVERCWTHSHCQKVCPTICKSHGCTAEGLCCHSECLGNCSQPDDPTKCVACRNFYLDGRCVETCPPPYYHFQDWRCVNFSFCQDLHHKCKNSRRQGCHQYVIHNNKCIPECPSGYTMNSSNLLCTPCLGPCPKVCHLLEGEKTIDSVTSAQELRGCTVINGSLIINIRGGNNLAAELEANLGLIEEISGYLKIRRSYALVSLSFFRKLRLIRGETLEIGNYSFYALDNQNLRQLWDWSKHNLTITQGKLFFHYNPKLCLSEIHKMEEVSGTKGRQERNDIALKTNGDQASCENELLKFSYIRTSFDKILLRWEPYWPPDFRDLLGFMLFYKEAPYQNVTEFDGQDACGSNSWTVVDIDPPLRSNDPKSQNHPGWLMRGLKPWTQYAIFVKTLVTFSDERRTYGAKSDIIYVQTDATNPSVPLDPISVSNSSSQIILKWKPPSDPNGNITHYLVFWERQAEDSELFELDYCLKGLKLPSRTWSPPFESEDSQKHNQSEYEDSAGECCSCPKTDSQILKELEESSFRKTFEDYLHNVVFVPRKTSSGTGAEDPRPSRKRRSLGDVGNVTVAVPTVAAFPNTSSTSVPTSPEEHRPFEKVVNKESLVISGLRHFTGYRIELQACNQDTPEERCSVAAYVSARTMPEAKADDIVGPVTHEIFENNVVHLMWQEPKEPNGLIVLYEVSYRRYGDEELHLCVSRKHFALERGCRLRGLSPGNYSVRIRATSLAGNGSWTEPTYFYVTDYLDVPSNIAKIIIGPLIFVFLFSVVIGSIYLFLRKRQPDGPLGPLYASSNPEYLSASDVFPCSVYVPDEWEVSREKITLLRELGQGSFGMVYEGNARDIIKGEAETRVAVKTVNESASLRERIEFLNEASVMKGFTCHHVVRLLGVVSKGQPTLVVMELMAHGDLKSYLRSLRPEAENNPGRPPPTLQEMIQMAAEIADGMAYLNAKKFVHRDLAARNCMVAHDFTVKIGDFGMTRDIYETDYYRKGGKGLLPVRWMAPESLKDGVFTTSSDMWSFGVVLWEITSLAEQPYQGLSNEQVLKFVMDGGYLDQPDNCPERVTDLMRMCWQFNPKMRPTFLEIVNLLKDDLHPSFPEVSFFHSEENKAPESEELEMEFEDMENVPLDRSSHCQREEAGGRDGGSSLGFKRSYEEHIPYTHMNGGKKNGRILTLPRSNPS
CSK, sequence (P41240 whole entry): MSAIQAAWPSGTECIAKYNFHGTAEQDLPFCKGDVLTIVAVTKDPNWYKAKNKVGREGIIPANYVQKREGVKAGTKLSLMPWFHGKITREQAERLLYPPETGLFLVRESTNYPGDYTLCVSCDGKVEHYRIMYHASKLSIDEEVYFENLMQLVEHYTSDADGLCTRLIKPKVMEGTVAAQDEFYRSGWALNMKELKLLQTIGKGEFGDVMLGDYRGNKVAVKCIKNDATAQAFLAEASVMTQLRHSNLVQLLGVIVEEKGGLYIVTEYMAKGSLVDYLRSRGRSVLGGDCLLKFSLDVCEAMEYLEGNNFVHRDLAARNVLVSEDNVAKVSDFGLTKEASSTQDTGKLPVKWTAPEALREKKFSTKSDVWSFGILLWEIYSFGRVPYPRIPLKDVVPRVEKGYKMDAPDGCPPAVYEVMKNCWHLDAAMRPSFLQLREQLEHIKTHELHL
FLT3-autoinhibited, sequence (P36888 whole entry): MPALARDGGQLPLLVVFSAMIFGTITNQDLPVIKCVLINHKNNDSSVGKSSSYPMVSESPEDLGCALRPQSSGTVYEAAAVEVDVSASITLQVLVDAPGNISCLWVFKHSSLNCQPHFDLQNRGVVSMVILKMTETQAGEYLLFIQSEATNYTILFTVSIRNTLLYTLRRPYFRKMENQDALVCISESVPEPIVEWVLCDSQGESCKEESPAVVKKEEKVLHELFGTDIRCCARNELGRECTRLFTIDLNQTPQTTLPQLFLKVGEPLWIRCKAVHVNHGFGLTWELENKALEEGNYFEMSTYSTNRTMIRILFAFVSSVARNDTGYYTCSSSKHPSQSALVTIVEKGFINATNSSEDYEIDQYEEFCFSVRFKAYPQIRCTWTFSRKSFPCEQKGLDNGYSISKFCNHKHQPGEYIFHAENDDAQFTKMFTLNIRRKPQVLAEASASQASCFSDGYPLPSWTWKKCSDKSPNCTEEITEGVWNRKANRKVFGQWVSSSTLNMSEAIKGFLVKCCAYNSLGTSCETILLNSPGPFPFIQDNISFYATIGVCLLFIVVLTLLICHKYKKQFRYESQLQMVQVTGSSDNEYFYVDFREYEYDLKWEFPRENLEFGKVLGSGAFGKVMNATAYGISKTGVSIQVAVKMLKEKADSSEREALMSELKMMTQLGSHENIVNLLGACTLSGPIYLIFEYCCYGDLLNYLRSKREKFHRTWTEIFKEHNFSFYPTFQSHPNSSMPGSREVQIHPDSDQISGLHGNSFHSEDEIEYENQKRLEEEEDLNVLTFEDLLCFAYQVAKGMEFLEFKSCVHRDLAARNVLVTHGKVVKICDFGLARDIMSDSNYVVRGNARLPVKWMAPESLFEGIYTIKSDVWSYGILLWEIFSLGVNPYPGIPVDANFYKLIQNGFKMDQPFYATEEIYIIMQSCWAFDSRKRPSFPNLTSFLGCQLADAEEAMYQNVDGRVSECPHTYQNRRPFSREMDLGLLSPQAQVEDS

## C=CC(=O)Nc1cc(-n2c(=O)ccc3cnc4ccc(-n5cccn5)cc4c32)ccc1C [CHMFL-BTK-11]
[1]
  remaining binding at 1 µM: 100%
[2]
  remaining binding at 1 µM: 100%
[3]
  remaining binding at 1 µM: 100%
[4]
  remaining binding at 1 µM: 100%
[5]
  remaining binding at 1 µM: 100%
[6]
  remaining binding at 1 µM: 66%
[7]
  remaining binding at 1 µM: 100%
[8]
  remaining binding at 1 µM: 99%
[9]
  remaining binding at 1 µM: 100%
[10]
  remaining binding at 1 µM: 100%
[11]
  remaining binding at 1 µM: 96%
[12]
  remaining binding at 1 µM: 100%
[13]
  remaining binding at 1 µM: 100%
[14]
  remaining binding at 1 µM: 100%
[15]
  remaining binding at 1 µM: 82%
[16]
  remaining binding at 1 µM: 100%
[17]
  remaining binding at 1 µM: 73%
[18]
  remaining binding at 1 µM: 97%
[19]
  remaining binding at 1 µM: 100%
[20]
  remaining binding at 1 µM: 97%
[21]
  remaining binding at 1 µM: 100%
[22]
  remaining binding at 1 µM: 100%
[23]
  remaining binding at 1 µM: 78%
[24]
  remaining binding at 1 µM: 100%
[25]
  remaining binding at 1 µM: 65%
